Patent US9499550B2 (BRISTOL-MYERS SQUIBB COMPANY, priority 2012, dated 2016)
Where two headings read alike, the source gives them in different places.

How the values were obtained:
[1] = system: HCV genotype 1b (Con1) replicon in HUH-7 cells; assay: HCV replicon luciferase reporter assay, genotype 1b; format: cell-based; conditions: Hepatitis C virus, Huh-7, 72 h, 3 days incubation, read-out: LE_1b (EC50, range)
Method in brief: (§1)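 Replicon inhibition for both genotypes was measured as Renilla luciferase signal (EnduRen, 7.5 μM final, 2 h) after 3-day, 37° C exposure of replicon-bearing HUH-7 cells in 4% FCS DMEM, 0.5% DMSO. The 1b construct carries S1179I; the 1a H77 construct carries P1496L and S2204I. Twenty-point, 3-fold dilutions were fitted four-parametrically for EC50, and CC50 was taken from multiplexed Cell Titer-Blue.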

[2] = system: HCV genotype 1a (H77 strain) replicon in HUH-7 cells; assay: HCV replicon luciferase reporter assay, genotype 1a; format: cell-based; conditions: Hepatitis C virus, Huh-7, 72 h, 3 days incubation, read-out: LE_1a (EC50, range)
Method in brief: as §1

[3] = HCV genotype 1b replicon luciferase
[4] = HCV genotype 1a replicon luciferase
[5] = GETYPE1B, HCV genotype 1b replicon luciferase
[6] = GETYPE1A, HCV genotype 1a replicon luciferase
[7] = HCV genotype 1b replicon luciferase assay, range class
[8] = HCV genotype 1a replicon luciferase assay, range class

| Structure (SMILES) | EC50 [1, 3] | EC50 [2, 4] | further results |
| --- | --- | --- | --- |
| CCOc1nnc(O[C@@H]2C[C@H]3C(=O)N[C@]4(C(=O)NS(=O)(=O)C5CC5)C[C@H]4/C=C\CC[C@@H](C)C[C@@H](CC)[C@H](NC(=O)OC(C)(C)C(F)(F)F)C(=O)N3C2)c2ccccc12 [Compound 5045, 1,1,1-trifluoro-2-methylpropan-2-yl((2R,6S,7R,9R,13aS,14aR,16aS,Z)-14a-((cyclopropylsulfonyl)carbamoyl)-2-((4-ethoxyphthalazin-1-yl)oxy)-7-ethyl-9-methyl-5,16-dioxo-1,2,3,5,6,7,8,9,10,11,13a,14,14a,15,16,16a-hexadecahydrocyclopropa[e]pyrrolo[1,2-a][1,4]diazacyclopentadecin-6-yl)carbamate] | < 5.46 nM | < 5.46 nM | – |
| [2H]C([2H])([2H])C(C)(OC(=O)N[C@@H]1C(=O)N2C[C@H](Oc3nnc(OC)c4ccccc34)C[C@H]2C(=O)N[C@]2(C(=O)NS(=O)(=O)C3(C)CC3)C[C@H]2/C=C\CC[C@@H](C)C[C@H]1CC)C([2H])([2H])[2H] [Compound 5022] | < 5.46 nM | < 5.46 nM | – |
| CC[C@@H]1C[C@H](C)CC/C=C\[C@@H]2C[C@@]2(C(=O)NS(=O)(=O)C2CC2)NC(=O)[C@@H]2C[C@@H](Oc3nc4cc(OC)ccc4nc3C(F)(F)F)CN2C(=O)[C@H]1NC(=O)OC(C)(C)C(F)(F)F [Compound 4263] | – | – | EC50 [1, 5]: 0.51 to 1 nM; EC50 [2, 6]: 1.01 to 5 nM |
| CC[C@@H]1C[C@H](C)CC/C=C\[C@@H]2C[C@@]2(C(=O)NS(=O)(=O)C2CC2)NC(=O)[C@@H]2C[C@@H](Oc3nc4cc(OC)ccc4nc3O)CN2C(=O)[C@H]1NC(=O)OC(C)(C)C [Compound 4262] | 35 to 620 nM | 35 to 620 nM | – |
| COc1cc(F)cc2c(O[C@@H]3C[C@H]4C(=O)N[C@]5(C(=O)NS(=O)(=O)C6(C)CC6)C[C@H]5/C=C\CC[C@H](C)C[C@@H](C)[C@H](NC(=O)O[C@H](C)C(F)(F)F)C(=O)N4C3)nccc12 [Compound 3157, (R)-1,1,1-trifluoropropan-2-yl ((2R,6S,7R,9S,13aS,14aR,16aS,Z)-2-((7-fluoro-5-methoxyisoquinolin-1-yl)oxy)-7,9-dimethyl-14a-(((1-methylcyclopropyl)sulfonyl)carbamoyl)-5,16-dioxo-1,2,3,5,6,7,8,9,10,11,13a,14,14a,15,16,16a-hexadecahydrocyclopropa[e]pyrrolo[1,2-a][1,4]diazacyclopentadecin-6-yl)carbamate] | – | – | EC50 [1, 7]: < 5.46 nM; EC50 [2, 8]: 4.82 to 103 nM |
| CCOc1ccc2c(O[C@@H]3C[C@H]4C(=O)N[C@]5(C(=O)NS(=O)(=O)C6(C)CC6)C[C@H]5/C=C\CC[C@@H](C)C[C@@H](CC)[C@H](NC(=O)OC(C)(C)C)C(=O)N4C3)nccc2c1 [Compound 5373, tert-butyl ((2R,6S,7R,9R,13aS,14aR,16aS,Z)-2-((6-ethoxyisoquinolin-1-yl)oxy)-7-ethyl-9-methyl-14a-(((1-methylcyclopropyl)sulfonyl)carbamoyl)-5,16-dioxo-1,2,3,5,6,7,8,9,10,11,13a,14,14a,15,16,16a-hexadecahydrocyclopropa[e]pyrrolo[1,2-a][1,4]diazacyclopentadecin-6-yl)carbamate] | 0.51 to 1 nM | 1.01 to 5 nM | – |
| CCOc1nnc(O[C@@H]2C[C@H]3C(=O)N[C@]4(C(=O)NS(=O)(=O)C5CC5)C[C@H]4/C=C\CC[C@@H](C)C[C@@H](C)[C@H](NC(=O)NC(C)(C)C)C(=O)N3C2)c2ccccc12 [Compound 5041, (2R,6S,7R,9R,13aS,14aR,16aS,Z)-6-(3-(tert-butyl)ureido)-N-(cyclopropylsulfonyl)-2-((4-ethoxyphthalazin-1-yl)oxy)-7,9-dimethyl-5,16-dioxo-1,2,3,5,6,7,8,9,10,11,13a,14,14a,15,16,16a-hexadecahydrocyclopropa[e]pyrrolo[1,2-a][1,4]diazacyclopentadecine-14a-carboxamide] | 4.82 to 103 nM | < 5.46 nM | – |
| CCCOc1cnc(O[C@@H]2C[C@H]3C(=O)N[C@]4(C(=O)NS(=O)(=O)C5(C)CC5)C[C@H]4/C=C\CC[C@@H](C)C[C@@H](C)[C@H](NC(=O)OCC4(C)CC4)C(=O)N3C2)c2ccccc12 [Compound 5083, (1-methylcyclopropyl)methyl ((2R,6S,7R,9R,13aS,14aR,16aS,Z)-7,9-dimethyl-14a-(((1-methylcyclopropyl)sulfonyl)carbamoyl)-5,16-dioxo-2-((4-propoxyisoquinolin-1-yl)oxy)-1,2,3,5,6,7,8,9,10,11,13a,14,14a,15,16,16a-hexadecahydrocyclopropa[e]pyrrolo[1,2-a][1,4]diazacyclopentadecin-6-yl)carbamate] | < 5.46 nM | < 5.46 nM | – |
| COc1ccc2c(O[C@@H]3C[C@H]4C(=O)N[C@]5(C(=O)NS(=O)(=O)C6(CF)CC6)C[C@H]5/C=C\CC[C@@H](C)C[C@@H](C)[C@H](NC(=O)OC(C)(C)C(F)(F)F)C(=O)N4C3)nc3c(c2c1)CCCO3 [Compound 6076, 1,1,1-trifluoro-2-methylpropan-2-yl((2R,6S,7R,9R,13aS,14aR,16aS,Z)-14a-(((1-(fluoromethyl)cyclopropyl)sulfonyl)carbamoyl)-2-((9-methoxy-2,3-dihydro-1H-pyrano[2,3-c]isoquinolin-6-yl)oxy)-7,9-dimethyl-5,16-dioxo-1,2,3,5,6,7,8,9,10,11,13a,14,14a,15,16,16a-hexadecahydrocyclopropa[e]pyrrolo[1,2-a][1,4]diazacyclopentadecin-6-yl)carbamate] | 1.01 to 5 nM | 1.01 to 5 nM | – |
| COc1ccc2c(Cl)cc(O[C@@H]3C[C@H]4C(=O)N[C@]5(C(=O)NS(=O)(=O)C6(CF)CC6)C[C@H]5/C=C\CC[C@@H](C)C[C@@H](C)[C@H](NC(=O)OC(C)(C)C(F)(F)F)C(=O)N4C3)nc2c1 [Compound 4200] | – | – | EC50 [1, 5]: < 5.46 nM; EC50 [2, 6]: 4.82 to 103 nM |
| C[C@H]1CC/C=C\[C@@H]2C[C@@]2(C(=O)NS(=O)(=O)C2CC2)NC(=O)[C@@H]2C[C@@H](Oc3nccc4c5c(ccc34)OC(F)(F)O5)CN2C(=O)[C@@H](NC(=O)OC(C)(C)C(F)(F)F)[C@H](C)C1 [Compound 5267, 1,1,1-trifluoro-2-methylpropan-2-yl((2R,6S,7R,9S,13aS,14aR,16aS,Z)-14a-((cyclopropylsulfonyl)carbamoyl)-2-((2,2-difluoro-[1,3]dioxolo[4,5-f]isoquinolin-6-yl)oxy)-7,9-dimethyl-5,16-dioxo-1,2,3,5,6,7,8,9,10,11,13a,14,14a,15,16,16a-hexadecahydrocyclopropa[e]pyrrolo[1,2-a][1,4]diazacyclopentadecin-6-yl)carbamate] | 4.82 to 103 nM | 4.82 to 103 nM | – |
| CCn1nc(O[C@@H]2C[C@H]3C(=O)N[C@]4(C(=O)NS(=O)(=O)C5(C)CC5)C[C@H]4/C=C\CC[C@@H](C)C[C@@H](C)[C@H](NC(=O)OC(C)(C)C)C(=O)N3C2)c2ccccc2c1=O [Compound 5065, tert-butyl ((2R,6S,7R,9R,13aS,14aR,16aS,Z)-2-((3-ethyl-4-oxo-3,4-dihydrophthalazin-1-yl)oxy)-7,9-dimethyl-14a-(((1-methylcyclopropyl)sulfonyl)carbamoyl)-5,16-dioxo-1,2,3,5,6,7,8,9,10,11,13a,14,14a,15,16,16a-hexadecahydrocyclopropa[e]pyrrolo[1,2-a][1,4]diazacyclopentadecin-6-yl)carbamate] | < 5.46 nM | 4.82 to 103 nM | – |
| COc1cc2cc(-c3ccc(OC(C)C)cc3)nc(O[C@@H]3C[C@H]4C(=O)N[C@]5(C(=O)NS(=O)(=O)C6(C)CC6)C[C@H]5/C=C\CC[C@H](C)C[C@@H](C)[C@H](NC(=O)OC(C)(C)C)C(=O)N4C3)c2cc1F [Compound 3183, tert-butyl ((2R,6S,7R,9S,13aS,14aR,16aS,Z)-2-((7-fluoro-3-(4-isopropoxyphenyl)-6-methoxyisoquinolin-1-yl)oxy)-7,9-dimethyl-14a-(((1-methylcyclopropyl)sulfonyl)carbamoyl)-5,16-dioxo-1,2,3,5,6,7,8,9,10,11,13a,14,14a,15,16,16a-hexadecahydrocyclopropa[e]pyrrolo[1,2-a][1,4]diazacyclopentadecin-6-yl)carbamate] | – | – | EC50 [1, 7]: < 5.46 nM; EC50 [2, 8]: 4.82 to 103 nM |
| COc1ccc2c(O[C@@H]3C[C@H]4C(=O)N[C@]5(C(=O)NS(=O)(=O)C6(CF)CC6)C[C@H]5/C=C\CC[C@@H](C)C[C@@H](C)[C@H](NC(=O)OC(C)(C)C(F)(F)F)C(=O)N4C3)nc(C(F)(F)F)cc2c1 [Compound 1169, 1,1,1-trifluoro-2-methylpropan-2-yl((2R,6S,7R,9R,13aS,14aR,16aS,Z)-14a-(((1-(fluoromethyl)cyclopropyl)sulfonyl)carbamoyl)-2-((6-methoxy-3-(trifluoromethyl)isoquinolin-1-yl)oxy)-7,9-dimethyl-5,16-dioxo-1,2,3,5,6,7,8,9,10,11,13a,14,14a,15,16,16a-hexadecahydrocyclopropa[e]pyrrolo[1,2-a][1,4]diazacyclopentadecin-6-yl)carbamate] | – | – | EC50 [1, 7]: < 5.46 nM; EC50 [2, 8]: < 5.46 nM |
| CC[C@@H]1C[C@H](C)CC/C=C\[C@@H]2C[C@@]2(C(=O)NS(=O)(=O)C2CC2)NC(=O)[C@@H]2C[C@@H](Oc3ncc(OC)c4ccc(Cl)cc34)CN2C(=O)[C@H]1NC(=O)OC(C)(C)C(F)(F)F [Compound 4190] | – | – | EC50 [1, 5]: < 5.46 nM; EC50 [2, 6]: < 5.46 nM |
